In patent US12458643B2, “Antidepressant/anxiolytic drug in which PAC1 receptor antagonist is used” (KAGOSHIMA UNIVERSITY, priority 2020, dated 2025):

Legend:
[1] = test system: normal mice; experiment: Light-dark test in normal mice; format: in vivo, mouse; settings: normal male C57BL/6J mice, 30 mg/kg i.p., 60 min after administration, 10 min test
Procedure: The effects of PA-8 and PA-81004 on normal mice were evaluated by a light-dark test (test to measure spontaneous locomotion by exploiting the properties of mice to avoid light environments, and placing the mice in a light box and a dark box joined together (each 20 cm×20 cm, height: 30 cm); in this test, anxiety-like behavior is evaluated by measuring times spent in the light box and the dark box and the number of transitions between the light box and the dark box).
(§1) Male C57BL/6J mice (8 to 12 weeks old) were acclimatized to a laboratory for 60 minutes. Then, a vehicle (10% DMSO solution; dissolved in saline; n=13), PA-8 (30 mg/kg; n=12) or PA-81004 (30 mg/kg; n=12) was intraperitoneally administered thereto (0.1 mL/10 g). After a lapse of 60 minutes after administration, the test was conducted for 10 minutes. The results are shown in FIG. 2 (A: time spent in the light box, B: the number of transitions between the light and dark boxes; light box illuminance: 330 lx).
The effects of PA-9 and PA-915 on normal mice were evaluated by the light-dark test.
as §1, with “laboratory (illuminance: 330 lx)” for “laboratory”, “saline; n=12), PA-9” for “saline; n=13), PA-8”, “mg/kg; n=10)” for “mg/kg; n=12)”, “or PA-915” for “or PA-81004”, “FIG. 6” for “FIG. 2”

[2] = test system: normal mice; experiment: Elevated plus maze test in normal mice; format: in vivo, mouse; settings: normal male C57BL/6J mice, 30 mg/kg i.p., 60 min after administration, 5 min test
Procedure: The effects of PA-8 and PA-81004 on normal mice were evaluated by an elevated plus maze test (test that exploits the properties of mice to avoid heights and prefer to stay near walls; in this test, anxiety-like behavior is evaluated by placing the mice at the center of a maze disposed at a height of 50 cm in which a 26 cm long and 8 cm wide open arm without walls and a closed-arm with walls are disposed in a cross shape, and measuring a time spent in the open arm and the number of entries thereto).
Male C57BL/6J mice (8 to 12 weeks old) were acclimatized to a laboratory (illuminance: 50 lx) for 60 minutes. Then, a vehicle (10% DMSO solution; dissolved in saline; n=13), PA-8 (30 mg/kg; n=12) or PA-81004 (30 mg/kg; n=12) was intraperitoneally administered thereto (0.1 mL/10 g). After a lapse of 60 minutes after administration, the test was conducted for 5 minutes. The results are shown in FIG. 3 (A: total distance traveled, B: the number of open arm (course without walls) entries, C: time spent in the open arm).
The effects of PA-9 and PA-915 on normal mice were evaluated by the elevated plus maze test.
Male C57BL/6J mice (8 to 12 weeks old) were acclimatized to a laboratory (illuminance: 50 lx) for 60 minutes. Then, a vehicle (10% DMSO solution; dissolved in saline; n=8), PA-9 (30 mg/kg; n=8) or PA-915 (30 mg/kg; n=7) was intraperitoneally administered thereto (0.1 mL/10 g). After a lapse of 60 minutes after administration, the test was conducted for 5 minutes. The results are shown in FIG. 7 (A: total distance traveled, B: the number of open arm entries, C: time spent in the open arm).

| Structure (SMILES) | pharmacological action in light-dark test (time in light box, transitions) [1] | pharmacological action in elevated plus maze test (total distance, open arm entries, time in open arm) [2] |
| --- | --- | --- |
| C=CCOc1ccc(C2CC(=O)Nc3nc(N)[nH]c(=O)c32)cc1OC (stereo not drawn) [PA-8] | no pharmacological action | no pharmacological action |
| O=C(NCCc1c[nH]cn1)C1CC(=O)N(c2n[nH]c3ccccc23)C1 (stereo not drawn) [PA-9] | no pharmacological action | no pharmacological action |
| Nc1nc2c(c(=O)[nH]1)C(c1cccc(OC(F)(F)F)c1)CC(=O)N2 (stereo not drawn) [PA-81004, 2-Amino-5-(3-trifluoromethoxyphenyl)-5,8-dihydro-3H,6H-pyrido[2,3-d]pyrimidine-4,7-dione] | no pharmacological action | no pharmacological action |
